Patent publication US20070134255A1 (priority 2003, published 2007)
Like-named read-outs stand apart in the source and are kept apart here.

What was measured:
hMPV [1] = assay: Ribavirin as a therapeutic (added post-infection): hMPV infected Vero cells counted by immune fluorescence; assay type: cell-based, Human Metapneumovirus; conditions: for inhibition at 25 µg/mL: human metapneumovirus, Vero, read-out: inhibition of viral replication
Description: Percentage of cells infected with hMPV. Cells were infected with 30 TCID50 of hMPV and after 0, 2, 4, 8 and 16 hours, post-infection, 0, 5, 10, 25, 50 or 100 microgram of Ribavirin was added. Three days post-infection, cells were fixed and stained with a hMPV-specific polyclonal antibody, and the number of hMPV positive and negative cells were counted in 5 fields.
(§1) Vero cells (African green monkey kidney cells) were maintained and passaged in Iscove's Modified Dulbecco's Medium (IMDM) containing L-glutamine (2 mM), penicillin (100 U/ml), streptomycin (100 μg/ml) and 10% fetal calf serum (FCS) and incubated in a humidified atmosphere at 37° C. Virus infection medium contained bovine serum albumin (BSA; 0.3%) and trypsin (2.5×10^−4%) instead of FCS. Human Metapneumovirus stocks were prepared by inoculating Vero cells with hMPV, and harvesting 7-10 days post-infection, when there were visible cytopathic effects. The virus was stored at −70° C. and titrated by end point dilution on Vero cells.
Cells were seeded in 24 well plates as described above. The next day, cells were inoculated with 10 or 100 TCID50 of hMPV in the absence of Ribavirin. Two hours post-infection, the supernatant was aspirated and the cells were washed in phosphate-buffered saline (PBS) to remove virus inoculum. Fresh medium was added and the cells were incubated at 37° C. At different time points (2, 4, 8 and 16 hours) after infection, Ribavirin was added to the cells to reach concentrations of 0, 5, 25 or 50 μg/ml.
(§2) The plates were incubated at 37° C. for 1 or 3 days. Medium was refreshed every second day and Ribavirin was maintained in the medium at all times at the appropriate concentration. After the indicated incubation period, medium was removed, the cells were washed with PBS and cells were fixed with 80% acetone. Staining for immune fluorescence analysis was performed by incubating infected cells with guinea pig anti-hMPV serum in PBS for 1 hour, followed by a FITC-labeled rabbit anti-guinea pig polyclonal antibody preparation (DAKO) in PBS for 1 hour. Background staining was finally performed with eriochrome black before analysis under an immune fluorescence microscope. Infected cells were counted in 5 fields under high power magnification (320×). Results are presented as the total number of infected cells counted in these 5 fields

hMPV [2] = assay: Ribavirin as a prophylactic: hMPV infected Vero cells counted by immune fluorescence; assay type: cell-based, Human Metapneumovirus; conditions: for reduction in number of infected cells: pre-incubation 2 h before infection, 100 TCID50 hMPV, day 1 post-infection, Vero cells
Description: as §1
One day prior to infection, the cells were seeded in 24 well plates at 30-40% confluency, and incubated overnight at 37° C. The next day, cells were pre-incubated with fresh medium containing 0, 5, 25 or 50 μg/ml of Ribavirin for 2 hours prior to virus infection. Following this pre-incubation, cells were infected with 10 or 100 TCID50 (tissue culture infectious doses) of hMPV, in the continuing presence of Ribavirin. After 2 hours, the virus inoculum was washed off and fresh medium containing Ribavirin was put onto the cells.
as §2

PIV type 3 (PIV3) = conditions: cited from earlier work
hMPV strain NL/01/00 = assay: Inhibition of hMPV by Ribavirin and neutralizing antibodies in Vero cells (immunofluorescence, estimated percentages of infected cells); assay type: cell-based, Human Metapneumovirus
Description: Passaging and seeding Vero cells (clone 118) was done in standard DMEM medium, supplemented with 10% FCS, L-glutamin and antibiotics (penicillin and streptomycin). Cells were seeded approximately 1:4 in 48 wells plates, so that cells would be ±75% confluent the next day. Infecting cells was done in IMDM medium with […], Pen/Strep and L-glutamin.
[…]. Plates were finally spun at 1500 g for 5 minutes and incubated at 37C in a humidified atmosphere for 3 days. After 3 days, from duplicate wells of each experimental condition the cells and supernatant were harvested and frozen at −70 C. Aliquots from these virus cultures were used for RNA isolation and subsequent quantification of viral genomic copy numbers by real-time RT-PCR on a TAQMAN® machine. The other duplicate wells from each experimental condition were stained for hMPV by immunofluorescence and numbers of infected cells were counted under a fluorescence microscope. Briefly, cells were washed with PBS and fixed with 80% acetone, washed again and subsequently incubated with a guinea pig anti-hMPV serum. After removal of the antiserum, cells were incubated with a FITC-labeled rabbit-anti-guinea pig polyclonal antibody preparation, washed and analyzed.
Note: Indicated results are estimated percentages of infected cells. Viral genomic copy numbers remain to be determined by taqman analyses (to be done this week)

NC(=O)c1ncn([C@@H]2O[C@H](CO)[C@@H](O)[C@H]2O)n1 [Ribavirin]
inhibition of viral replication (hMPV [1]; Ribavirin 25 μg/ml added after 16 hrs, read 3 days post-infection): insignificantly | reduction of infection (hMPV [1]; Ribavirin 100 μg/ml added 8 hrs post-infection, read 3 days post-infection): 80% | reduction of infection (hMPV [1]; Ribavirin 100 μg/ml added 16 hrs post-infection, read 3 days post-infection): 50% | reduction of infection (hMPV [1]; Ribavirin 100 μg/ml added at 0, 2 or 4 hours post-infection, read 3 days post-infection): 95% | percentage of MPV-positive cells (hMPV [1]; Ribavirin 25 microgram/ml or higher, added 0-16 hours after infection, 3 days post-infection): greatly reduced | concentration of Ribavirin needed to see a significant effect (hMPV [1]; added 8 or 16 hrs post-infection): 100 µg/mL | inhibition at 25 µg/mL (hMPV [1]; Ribavirin 25 μg/ml added 4 or 8 hrs post-infection, read 3 days post-infection): 10% | inhibition at 25 µg/mL (hMPV [1]; Ribavirin 25 μg/ml added at 0 or 2 hrs post-infection, read 3 days post-infection): 50% | reduction in number of infected cells (hMPV [2]; 25 μg/ml Ribavirin): approximately 50% | decrease in the number of infected cells (hMPV [2]; 50 μg/ml Ribavirin added 2 hrs prior to or at the same time as virus infection): up to 95% | reduction in number of infected cells (hMPV [2]; 50 μg/ml Ribavirin): approximately 95% | effect on number of infected cells compared with day 1 (hMPV [2]; day 3 after infection, cells infected with 10 or 100 TCID50): same effect | improvement in outcome (PIV type 3 (PIV3); Elizaga et al.: 18 of 24 PIV3 patients treated, starting three days after onset of symptoms): no improvement in outcome was observed | viral shedding of treated and untreated patients (PIV type 3 (PIV3); Nichols et al.: 31 of 55 patients with PIV3 pneumonia treated within 48 hours of diagnosis): similar | effect on the growth of hMPV in vero cells in vitro (hMPV strain NL/01/00; FIG. 3, 50 or 250 TCID50): profound effect | inhibition at 25 µg/mL (hMPV strain NL/01/00; human metapneumovirus, Vero, 72 h, read-out: inhibition of viral proliferation): ~90%
